Laboratory results from patent US8039430B2 (University of Wollongong, priority 2005, dated 2011).

Key:
[1] = test system: #243 E. faecium van B ST17; assay: Antibacterial assay (MIC), VRE strain #243, Enterococossel Broth, Example 1; assay type: cell-based, Enterococcus faecium; conditions: Enterococcus faecium; Example 1 compounds; VRE #243 E. faecium van B; 24 hrs, 37° C.; read-out: 243 (minimum inhibitory concentration)
Description: (§1) Antibacterial Assay Method for Staphylococcus aureus (ATCC 6538P) and Enterococcus faecium
(§2) VRE strains: #243 E. faecium van B ST17 #449 E. faecium van B ST17
(§3) Compounds are accurately weighed out (between approx. 1-2 mg) and dissolved in either 10% methanol/water (v/v) or 100% DMSO to a final stock concentration of 5 mg/ml.
(§4) Compounds are then diluted 1/10 in H2O to a test conc of 500 ug/ml ready for immediate use, or storage at −20° C.
(§5) Grow up an o/n starter culture of Staphylococcus aureus and each VRE strain by diluting previous culture (stored at 4° C.) 1/1000 into −50 mls Luria Broth (LB) for S. aureus or Enterococossel Broth (EB) for the VRE strains.
(§6) Incubate o/n at 37° C.+shaking. • A glycerol stock (0.6 mls bacterial culture, 0.3 mls glycerol) of each strain is kept at −80° C. if needed. Assay Set Up:
(§7) In a 96well round bottom plate add 50 ul LB/well for the S. aureus plate and add 50 ul EB/well for the VRE plates.
(§8) Add 50 ul of compound dilution (500 ug/ml test conc) to each of three top row wells (ie: tested in triplicate) and dilute 1 in 2 from the top row to the bottom row.
(§9) After the compound dilution, add to each well 50 ul of a 1/1000 dilution of the appropriate overnight bacterial culture, either S. aureus or the different VRE strains.
(§10) Plates are incubated at 37° C. on a slowly rotating plate incubator. • test concentrations are (in ug/ml) 125, 62.5, 31.25, 15.6, 7.8, 3.9, 1.9, 0.98 • final DMSO concentration in the first row of wells of the assay is 2.5% • Vancomycin is included in the assay (in triplicate) at a starting test concentration of 5 ug/ml for S. aureus and 125 ug/ml for the VRE strains Reading Results of Assay:
(§11) After incubation for 24 hrs the plates are removed and read. Inhibition of bacterial growth is indicated by lack of bacterial pellet or a clear well. In the VRE plates bacterial growth is indicated by black coloured media (EB) as well as a bacterial pellet.
(§12) Untreated control wells are included in the assay to check they all contain bacterial pellets. Uninoculated untreated control wells are included to check they all contain clear medium.
(§13) The plates are analysed for MIC and the results tabulated.

[2] = test system: Staphylococcus aureus (ATCC 6538P); assay: Antibacterial assay (MIC), Staphylococcus aureus ATCC 6538P, Luria Broth, Example 1; assay type: cell-based; conditions: Staphylococcus aureus, ATCC6538P; Example 1 compounds; S. aureus ATCC 6538P; 24 hrs, 37° C.; range if at least two of three values fell within it; read-out: Sa (minimum inhibitory concentration)
Description: as §1
Staphylococcus aureus (ATCC 6538P)
as §3, §4, §5, §6, §7, §8, §9, §10, §11, §12, §13

[3] = test system: Staphylococcus aureus Mu50 (ATCC 700699); assay: MIC determination by micro-broth dilution (NCCLS), S. aureus Mu50; assay type: cell-based; conditions: ATCC700699, Example 1 compounds, Mueller Hinton II broth, 24 hours, 37° C.
Description: (§14) Antibacterial Assay Methods for Staphylococcus aureus Mu50 (ATCC 700699), Methicillin-Resistant Staphylococcus aureus (ATCC 43300), Multi-Drug-Resistant Staphylococcus epidermidis (ATCC 700562) Compounds
(§15) The compounds were stored at room temperature in the dark prior to use. Each compound was solubilized in DMSO to a final concentration of 40 mg/mL. The stock material was diluted to a concentration equivalent to two times the final in-well high test concentration (100 μg/mL for all experimental compounds) in Mueller Hinton II broth. […] Vancomycin and oxacillin were obtained from Sigma Aldrich Chemical Company and were used as positive and/or negative control compounds in the reported assays at high test concentrations of 100, 25 and 100 μg/mL respectively.
(§16) The bacterial strains employed in these assays were obtained from the American Type Culture Collection (ATCC). All of the bacterial strains were propagated as recommended by the ATCC. Each strain was stored as a frozen glycerol stock at −80° C. and a 10 μL loop of the frozen stocks was used to inoculate each culture for these assays.
(§17) The susceptibility of the above microorganisms to the test compounds was evaluated by determining the MIC of each compound using micro-broth dilution analysis according to the methods recommended by the NCCLS. All microbial strains were obtained from American Type Culture Collections (ATCC) and cultured according to the suppliers recommendations. Evaluation of the susceptibility of each organism against the test compounds included a positive control antibiotics Vancomycin and Oxacillin. For each organism, a standardized inoculum was prepared by direct suspension of freshly plated colonies in Mueller Hinton II broth to an optical density 625 nm (OD625) of 0.1 (equivalent to a 0.5 McFarland standard). The suspended inoculum was diluted to a concentration of approximately 1×10^6 colony forming units per milliliter (CFU/mL) and 100 μL placed into triplicate wells of a 96-well plate containing 100 μL of test compound serially diluted 2-fold in Mueller Hinton II broth. One hundred microliters of the inoculum was also added to triplicate wells containing 100 μL of two-fold serial dilutions of a positive control antibiotic and to wells containing 100 μL of media only. This dilution scheme yielded final concentrations for each microbial organism estimated to be 5×10^5 CFU/mL (verified by colony quantification on appropriate agar plates, data is not presented). Test compound concentrations ranged from a high-test of 1:2 (100 μg/mL)) to a low test of 1:2048 (0.1 μg/mL) using a two-fold dilution scheme. The plates were incubated for 24 hours at 37° C., and the microbial growth at each concentration of compound was determined by measuring the optical density at 625 nm on a Molecular Devices SpectraMax Plus-384 plate reader.
(§18) Microsoft Excel 2003 was used to analyze and graph the data, and the MIC (minimal inhibitory concentration) was determined from the resulting data.

[4] = test system: #449 E. faecium van B ST17; assay: Antibacterial assay (MIC), VRE strain #449, Enterococossel Broth, Example 1; assay type: cell-based, Enterococcus faecium; conditions: Enterococcus faecium; Example 1 compounds; VRE #449 E. faecium van B; 24 hrs, 37° C.; read-out: 449 (minimum inhibitory concentration)
Description: as §1, §2, §3, §4, §5, §6, §7, §8, §9, §10, §11, §12, §13

[5] = test system: #987 E. faecium van B ST39; assay: Antibacterial assay (MIC), VRE strain #987, Enterococossel Broth, Example 1; assay type: cell-based, Enterococcus faecium; conditions: Enterococcus faecium; Example 1 compounds; VRE #987 E. faecium van B; 24 hrs, 37° C.; read-out: 987 (minimum inhibitory concentration)
Description: as §1
(§19) #820 E. faecium van A ST17 #987 E. faecium van B ST39
as §3, §4, §5, §6, §7, §8, §9, §10, §11, §12, §13

[6] = test system: #820 E. faecium van A ST17; assay: Antibacterial assay (MIC), VRE strain #820, Enterococossel Broth, Example 1; assay type: cell-based, Enterococcus faecium; conditions: Enterococcus faecium; Example 1 compounds; VRE #820 E. faecium van A; 24 hrs, 37° C.; read-out: 820 (minimum inhibitory concentration)
Description: as §1, §19, §3, §4, §5, §6, §7, §8, §9, §10, §11, §12, §13

[7] = test system: Multi-Drug-Resistant Staphylococcus epidermidis (ATCC 700562); assay: MIC determination by micro-broth dilution (NCCLS), multi-drug-resistant S. epidermidis; assay type: cell-based; conditions: ATCC700562, Example 1 compounds, Mueller Hinton II broth, 24 hours, 37° C.
Description: as §14, §15, §16, §17, §18

[8] = test system: Methicillin-Resistant Staphylococcus aureus (ATCC 43300); assay: MIC determination by micro-broth dilution (NCCLS), methicillin-resistant S. aureus; assay type: cell-based; conditions: ATCC43300, Example 1 compounds, Mueller Hinton II broth, 24 hours, 37° C.
Description: as §14, §15, §16, §17, §18

Row | Structure (SMILES) | MIC [1] [µg/mL] | MIC [2] [µg/mL] | MIC [3] [µg/mL] | MIC [4] [µg/mL] | MIC [5] [µg/mL] | MIC [6] [µg/mL] | MIC [7] [µg/mL] | MIC [8] [µg/mL]
1 | CC(C)CCOc1ccc2ccccc2c1-c1c(OCC(=O)N[C@H](CCCCN)C(=O)N[C@H](CCCNC(=N)N)C(=O)N[C@@H](CC(C)C)C(=O)OCc2ccccc2)ccc2ccccc12.Cl.Cl (atropisomer, axis not shown) [Compound 1] | 15.7 to 62.5 | 0.99 to 15.6 | 0.99 to 15.6 | 15.7 to 62.5 | 15.7 to 62.5 | 0.99 to 15.6 | 0.99 to 15.6 | 0.99 to 15.6
2 | CC(C)CCOc1ccc2ccccc2c1-c1c(OCC(=O)N[C@H](CCCCN)C(=O)N[C@H](CCCNC(=N)N)C(=O)N[C@H](COCc2ccccc2)CC(C)C)ccc2ccccc12.Cl.Cl (atropisomer, axis not shown) [Compound 15] | 15.7 to 62.5 | 0.99 to 15.6 | 0.99 to 15.6 | 15.7 to 62.5 | 15.7 to 62.5 | 15.7 to 62.5 | 0.99 to 15.6 | 0.99 to 15.6
3 | CC(C)CCOc1ccc2ccccc2c1-c1c(OCC(=O)N[C@H](CCCCN)C(=O)N[C@H](CCCNC(=N)N)C(=O)N[C@@H](CC(C)C)c2ncc(-c3ccccc3)o2)ccc2ccccc12.Cl.Cl (atropisomer, axis not shown) [Compound 16] | > 62.6 | 0.99 to 15.6 | 0.99 to 15.6 | > 62.6 | > 62.6 | > 62.6 | 0.99 to 15.6 | 0.99 to 15.6

The remaining lines, values ahead:

Row | MIC [1] [µg/mL] | MIC [2] [µg/mL] | MIC [3] [µg/mL] | MIC [4] [µg/mL] | MIC [5] [µg/mL] | MIC [6] [µg/mL] | MIC [7] [µg/mL] | MIC [8] [µg/mL] | Structure (SMILES)
4 | 15.7 to 62.5 | < 0.98 | 0.99 to 15.6 | 15.7 to 62.5 | 15.7 to 62.5 | 15.7 to 62.5 | 0.99 to 15.6 | 0.99 to 15.6 | CC(C)CCOc1ccc2ccccc2c1-c1c(OCC(=O)N[C@H](CCCCN)C(=O)N[C@H](CCCNC(=N)N)C(=O)N[C@@H](CC(C)C)c2nc(S(=O)(=O)O)c(-c3ccccc3)o2)ccc2ccccc12.Cl.Cl (atropisomer, axis not shown) [Compound 17]
5 | 15.7 to 62.5 | 0.99 to 15.6 | 0.99 to 15.6 | 15.7 to 62.5 | 15.7 to 62.5 | 15.7 to 62.5 | 0.99 to 15.6 | 0.99 to 15.6 | CC(C)CCOc1ccc2ccccc2c1-c1c(OCC(=O)N[C@H](CCCCN)C(=O)N[C@H](CCCNC(=N)N)C(=O)NC2(C(=O)OCc3ccccc3)CCCCC2)ccc2ccccc12.Cl.Cl (atropisomer, axis not shown) [Compound 21]
